The test system of series [1] is retinal cone photoreceptors. Put plainly: Eye cup cultures stained for M-cone opsin (cone photoreceptor cell death in vitro). It is filed as cell-based. The following applies: 8 nM TTF in growth media, 18 hours, eye cups of 21-day old RPE65/rd12 mice, vs vehicle (0.0115% DMSO). Here is the method: Eyes were obtained from 21-day old RPE65/rd12 mice, and the posterior segment was separated from the cornea, the lens, the iris, and the ciliary body under a surgical microscope. The eye cups were placed onto a microporous membrane (30 mm in diameter; Millicell-CM; Millipore, Bedford, MA) with the ganglion cell layer (GCL) facing up and the sclera facing the filter in a six-well culture plate. Each well contained 1 ml of culture medium consisting of 50% minimum essential medium/HEPES (Sigma, St. Louis, MO), 25% HBSS (Invitrogen, USA), and 25% heat inactivated fetal bovine serum (Invitrogen, USA) supplemented with 200 μM L-glutamine and 5.75 mg/ml glucose and 8 nM natural TTF (nTTF) or synthetic TTF (sTTF) or same volume of vehicle solution (0.0115% DMSO, control). The eye cups were maintained in culture at 37° C., 5% C02 incubator for 18 hours.
The eye cups were fixed with 4% paraformaldehyde (PFA) and embedded in sucrose for cryopreservation. […]
Sections from these eye cups were stained with antibodies directed against M-cone opsin (Milipore, USA) by incubating the sections with antibodies diluted 1:100 in 1% BSA (Sigma) for 16 hrs at 4° C. followed by extensive washing in PBS and 1 hour incubation with 488-AffiniPure Donkey Anti-Mouse IgG antibody (Jackson Immuno Research) at room temperature. […] The number of positively stained cells/mm retina was recorded. […]

The nature of series [2]: TTF eye drops crossing the corneal barrier, HPLC of anterior chamber fluids. It is filed as in vivo. The note with it: eye drops 12.5 mg/ml in DMSO, rabbit. The method, then: TTF eye drops (12.5 mg/ml=34.7 mM in DMSO) or vehicle (DMSO) were dropped every 10 seconds on rabbit eyes (10 eye drops of 50 μL per eye−0.5 mL total volume). The eye fluids were collected 45 minutes or 3 hours later. About 100 microliters of anterior chamber fluids were collected from each eye. The eye fluids from both eyes of the same rabbit were pooled and the amount of TTF that penetrated the cornea was determined by IPLC analysis. Twenty microliters of pooled eye fluids were filtered and injected into an Agilent UIHPLC Infinity II 1290 device equipped with a Kinetex 5 μm EVO C18 column (250*4.6 mm). Running conditions were as follows: a 10-minute gradient was delivered at a flow rate of 1 mL/min: 5 minutes in a binary mobile phase which consisted of 0.5% acetic acid (in distilled water), and 5 minutes in acetonitrile in DDW. The detection was performed at a wavelength of 350 nm since, in eye fluids taken from naive rabbits or rabbits given eye drops containing DMSO only, there was no background at 350 nm interfering with the measurement. Under these conditions, the retention time of TTF is 5.086 minutes.

For the next series, the system named is microglial cells. Put plainly: Microglial activation and migration into the sub retina, Iba-1 staining of retina flat mounts. It is filed as in vivo, RPE65/rd12 mice. The following applies: eye drops 12.5 mg/ml TTF in DMSO twice daily, 6 days/week, 3 weeks; n=10; p=0.0063 vs placebo. The method, then:
Eyes were lightly fixed in 4% PFA. The cornea, iris and lens were removed, the neuro-retina was peeled off and the RPE flat mount was incubated with Iba-1 antibodies (Wako chemicals, USA, 1:200 in PBS and 0.1% triton-X) for 16 hours at 4° C., followed by incubation with secondary Alexa Fluor® 488-AffiniPure Donkey Anti-Mouse IgG antibody (Jackson Immuno Research; USA, 1:400 in PBS with 0.2% DAPI) for 2 hours at room temperature. Samples were visualized using a fluorescent microscope (Olympus BX51) and recorded using the Olympus DP71 camera.
3 weeks old RPE65/rd12 mice were treated twice daily (6 days/week) for 3 weeks with eye drops containing 12.5 mg/ml (34.7 mM) TTF in DMSO (10pl/eye drop) or vehicle alone (DMSO). Each treatment consisted of one eye drop. Retina flat mounts of the treated and the control RPE65/rd12 mice were prepared as described above and stained for the microglial specific marker Iba-1.

The next series concerns IL-1β. In words: IL-1β concentration in retinal lysates (ELISA). It is filed as in vivo, RPE65/rd12 mice. The note with it: eye drops 12.5 mg/ml TTF in DMSO twice daily, 6 days/week, 3 weeks; vs vehicle. Here is the method: 3 weeks old RPE65/rd12 mice were treated twice daily (6 days/week) for 3 weeks with eye drops containing 12.5 mg/ml (34.7 mM) TTF in DMSO (10p1/eye drop) or vehicle alone (DMSO).
Each pair of retinas from the same mouse was homogenized in the same tube in 120 μl lysis buffer containing 10 mM TRIS pH 7.5, 100 mM NaCl, 1 mM EDTA, and 0.01% TRITON X-100. Protein concentration in each sample was determined in duplicates using a commercial kit: Pierce™ BCA Protein Assay Kit (23227), Thermo Fisher Scientific, IL, USA. IL-1β levels were tested using a commercial sandwich ELISA kit: Mouse IL-1 beta/IL-1F2 DuoSet ELISA (DY401). R&D Systems, Inc., MN, USA.

Another series has as its system retinal photoreceptors. In words: TUNEL staining of photoreceptor layer (photoreceptor apoptosis). It is filed as in vivo, RPE65/rd12 mice. The following applies: eye drops 12.5 mg/ml TTF in DMSO twice daily, 6 days/week, 3 weeks; n=7; p=0.0013 vs placebo. The method, then: 3 weeks old RPE65/rd12 mice were treated twice daily (6 days/week) for 3 weeks with eye drops containing 12.5 mg/ml (34.7 mM) TTF in DMSO (10 μl/eye drop) or vehicle alone (DMSO).
Mice were euthanized using C02, the eyes were obtained and fixed in 10% formalin. Frozen sections were stained with TUNEL-TMR kit following manufacturer's instructions. The number of TUNEL positive nuclei in the outer nuclear layer was counted as well as the length of retinal sections. Results are shown in FIG. 6 as the number of TUNEL positive nuclei/mm retina.

For a further series, the system named is retinal function. In words: Dark-adapted electroretinogram (ERG), retinal function. It is filed as in vivo, RPE65/rd12 mice. The following applies: eye drops 12.5 mg/ml TTF twice daily, 6 days/week, 12 weeks; n=6; vs placebo eye drops. Here is the method:
(§1) 3 weeks old RPE65/rd12 mice were treated twice daily (6 days/week) for 12 weeks with eye drops (10p1/eye drop) containing 12.5 mg/ml (34.7 mM) TTF (n=6) or vehicle alone (DMSO, n=6).
For dark adapted ERG, the mice were placed in total darkness for at least 12 h prior to examination. Animals were anesthetized with intraperitoneal injection containing 75 mg/kg ketamine and 10 mg/kg xylazine. Pupils were dilated with topical 1% tropicamide and 10% phenylephrine HCl. ERGs were recorded from both eyes simultaneously, using golden wire loop electrodes positioned on each cornea. Chloride silver electrodes were inserted subcutaneously near the temporal canthi as reference. An additional ground electrode was placed on the tail. Tests were performed under dark adapted (scotopic), and light adapted (photopic) conditions. Five light stimuli at increasing intensities were used (0.0023, 0.25, 2.4, 4.4, 23.5 cd-s/m2). For dark adapted ERG, responses were averaged with stimulus intervals of 1 to 30 s depending on the stimulus light intensity.

Series [3] is described as follows: Side effects after daily TTF eye drops (general health, retinal and corneal structure). It is filed as in vivo. The note with it: 12 weeks of daily treatment with TTF eye drops. The method, then: as §1

SMILES strings stand for the structures.

On to `COc1cc(-c2oc3cc(OC)c(OC)c(O)c3c(=O)c2O)ccc1O` [TTF, 3,5,4′-trihydroxy-6,7,3′-trimethoxyflavone], for which the “cone photoreceptor cell death in cultures of retinas” value in series [1] was “attenuates cone photoreceptor cell death”. Moreover, the “crossing of the corneal barrier / penetration into the eye” value in series [2] (10 drops of 50 μL per eye, anterior chamber fluids) was “can cross the corneal barrier and penetrate the eye”. Besides, in series [2] (fluids collected at 45 minutes or 3 hours), the “time of maximal concentration of TTF in eye fluids after eye drops instillation” value stood at 45 min. The “infiltrating subretinal microglia (mean±SD)” value in the series on microglial cells is reported as 42±14 microglia cells/retina. Besides, in the series with IL-1β, the “IL-1β concentration in the retina” value is recorded as “reduced”. Also, the “TUNEL positive cells in the photoreceptor layer (mean±SE)” value in the series with retinal photoreceptors was determined as 2±0.4 apoptotic cells/mm retina. Also, in the series with retinal function, the “maximal dark-adapted ERG a-wave amplitude” value is on record as “significantly higher” and the “maximal dark-adapted ERG b-wave amplitude” value was “significantly higher”. Moreover, the “side effects (general health, retinal and corneal structure)” value in series [3] was “no side effects were observed”.

The values are drawn from patent US20240033246A1, “COMPOUNDS FOR TREATING EYE DISEASES AND DISORDERS” (The State of Israel, Ministry of Agriculture & Rural …, priority 2020, published 2024).
